The record followed here is publication PMC9133015 (Nature Communications, 2022).

Holding throughout (assay): Kinase inhibitor specificity profiling (Reaction Biology Corporation)
Common to all, as to assay type: biochemical
What all share (design): % Enzyme Activity (relative to DMSO controls): concentration or dose not given beside the values

The target of test [1] is T1, panel of 370 protein kinases (Homo sapiens, UniProt Q13882).
T1 construct: purchased Reaction Biology Corporation (assay service)
T1 sequence (Q13882 whole entry): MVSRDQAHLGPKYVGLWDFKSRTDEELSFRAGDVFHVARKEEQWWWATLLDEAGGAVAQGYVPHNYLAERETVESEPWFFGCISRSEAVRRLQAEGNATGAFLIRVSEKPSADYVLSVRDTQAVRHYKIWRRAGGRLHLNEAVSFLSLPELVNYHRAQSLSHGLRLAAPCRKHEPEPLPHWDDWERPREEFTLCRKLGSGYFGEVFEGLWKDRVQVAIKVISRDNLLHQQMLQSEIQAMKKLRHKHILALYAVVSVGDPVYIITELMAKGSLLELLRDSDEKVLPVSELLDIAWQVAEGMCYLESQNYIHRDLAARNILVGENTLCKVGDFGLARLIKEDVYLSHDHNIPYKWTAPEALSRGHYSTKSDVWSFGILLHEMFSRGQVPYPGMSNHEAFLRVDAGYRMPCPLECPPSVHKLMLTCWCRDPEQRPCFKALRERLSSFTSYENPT
Particulars: 2 h, kinase BRK; read-out: % Enzyme Activity (relative to DMSO controls).

Test [2] concerns the target T2, panel of 370 protein kinases (Homo sapiens, UniProt Q9BYT3).
T2 construct: purchased Reaction Biology Corporation (assay service)
Particulars: 2 h, kinase STK33; read-out: % Enzyme Activity (relative to DMSO controls).

Test [3] addresses T3, panel of 370 protein kinases (Homo sapiens, UniProt Q9UHD2).
T3 construct: purchased Reaction Biology Corporation (assay service)
Particulars: 2 h, kinase TBK1; read-out: % Enzyme Activity (relative to DMSO controls).

Test [4] addresses T4, panel of 370 protein kinases (Homo sapiens, UniProt P05771).
T4 construct: purchased Reaction Biology Corporation (assay service)
The following applies: 2 h, kinase PKCb1; read-out: % Enzyme Activity (relative to DMSO controls).

The target in test [5] is T5, panel of 370 protein kinases (Homo sapiens, UniProt O43353).
T5 construct: purchased Reaction Biology Corporation (assay service)
The following applies: 2 h, kinase RIPK2; read-out: % Enzyme Activity (relative to DMSO controls).

The target of test [6] is T6, panel of 370 protein kinases (Homo sapiens, UniProt Q06418).
T6 construct: purchased Reaction Biology Corporation (assay service)
T6 sequence (Q06418 41-890): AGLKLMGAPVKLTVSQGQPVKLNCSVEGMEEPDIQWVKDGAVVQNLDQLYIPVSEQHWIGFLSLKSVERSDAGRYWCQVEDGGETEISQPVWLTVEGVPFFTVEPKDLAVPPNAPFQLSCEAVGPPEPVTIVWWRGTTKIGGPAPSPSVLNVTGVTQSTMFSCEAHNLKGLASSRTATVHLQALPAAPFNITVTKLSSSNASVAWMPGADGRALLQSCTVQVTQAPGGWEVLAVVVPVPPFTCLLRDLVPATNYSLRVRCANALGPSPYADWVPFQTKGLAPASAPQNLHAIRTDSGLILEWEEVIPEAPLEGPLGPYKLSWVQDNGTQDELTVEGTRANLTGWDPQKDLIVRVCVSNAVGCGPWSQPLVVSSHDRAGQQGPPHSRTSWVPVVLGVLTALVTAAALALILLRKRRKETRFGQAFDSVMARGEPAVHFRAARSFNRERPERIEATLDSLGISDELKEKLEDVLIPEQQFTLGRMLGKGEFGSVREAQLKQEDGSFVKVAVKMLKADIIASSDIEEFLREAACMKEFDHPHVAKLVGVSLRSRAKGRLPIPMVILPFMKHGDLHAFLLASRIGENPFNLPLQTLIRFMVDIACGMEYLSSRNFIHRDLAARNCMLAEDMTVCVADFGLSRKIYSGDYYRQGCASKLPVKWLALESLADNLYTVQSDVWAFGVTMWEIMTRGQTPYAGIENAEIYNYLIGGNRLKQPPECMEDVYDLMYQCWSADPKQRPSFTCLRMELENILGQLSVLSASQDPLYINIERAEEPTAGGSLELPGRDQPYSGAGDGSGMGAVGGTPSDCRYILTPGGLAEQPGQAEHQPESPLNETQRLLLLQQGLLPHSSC
Particulars: 2 h, kinase TYRO3/SKY; read-out: % Enzyme Activity (relative to DMSO controls).

Test [7] deals with T7, panel of 370 protein kinases (Homo sapiens, UniProt Q9HCP0).
T7 construct: purchased Reaction Biology Corporation (assay service)
T7 sequence (Q9HCP0 whole entry): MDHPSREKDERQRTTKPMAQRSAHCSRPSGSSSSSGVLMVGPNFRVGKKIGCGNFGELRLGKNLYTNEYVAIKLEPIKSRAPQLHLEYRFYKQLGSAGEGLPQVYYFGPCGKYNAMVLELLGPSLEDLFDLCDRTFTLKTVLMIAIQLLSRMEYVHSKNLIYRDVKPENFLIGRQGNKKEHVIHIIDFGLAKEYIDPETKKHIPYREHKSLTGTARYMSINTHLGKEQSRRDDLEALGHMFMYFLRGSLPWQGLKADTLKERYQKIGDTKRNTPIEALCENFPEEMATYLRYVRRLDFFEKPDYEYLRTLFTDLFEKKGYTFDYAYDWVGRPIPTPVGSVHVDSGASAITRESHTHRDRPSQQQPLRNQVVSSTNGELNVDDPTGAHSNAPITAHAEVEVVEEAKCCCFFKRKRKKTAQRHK
The following applies: kinase CK1g1.

Test [8] deals with T8, panel of 370 protein kinases (Homo sapiens, UniProt Q9H0K1).
T8 construct: purchased Reaction Biology Corporation (assay service)
T8 sequence (Q9H0K1 whole entry): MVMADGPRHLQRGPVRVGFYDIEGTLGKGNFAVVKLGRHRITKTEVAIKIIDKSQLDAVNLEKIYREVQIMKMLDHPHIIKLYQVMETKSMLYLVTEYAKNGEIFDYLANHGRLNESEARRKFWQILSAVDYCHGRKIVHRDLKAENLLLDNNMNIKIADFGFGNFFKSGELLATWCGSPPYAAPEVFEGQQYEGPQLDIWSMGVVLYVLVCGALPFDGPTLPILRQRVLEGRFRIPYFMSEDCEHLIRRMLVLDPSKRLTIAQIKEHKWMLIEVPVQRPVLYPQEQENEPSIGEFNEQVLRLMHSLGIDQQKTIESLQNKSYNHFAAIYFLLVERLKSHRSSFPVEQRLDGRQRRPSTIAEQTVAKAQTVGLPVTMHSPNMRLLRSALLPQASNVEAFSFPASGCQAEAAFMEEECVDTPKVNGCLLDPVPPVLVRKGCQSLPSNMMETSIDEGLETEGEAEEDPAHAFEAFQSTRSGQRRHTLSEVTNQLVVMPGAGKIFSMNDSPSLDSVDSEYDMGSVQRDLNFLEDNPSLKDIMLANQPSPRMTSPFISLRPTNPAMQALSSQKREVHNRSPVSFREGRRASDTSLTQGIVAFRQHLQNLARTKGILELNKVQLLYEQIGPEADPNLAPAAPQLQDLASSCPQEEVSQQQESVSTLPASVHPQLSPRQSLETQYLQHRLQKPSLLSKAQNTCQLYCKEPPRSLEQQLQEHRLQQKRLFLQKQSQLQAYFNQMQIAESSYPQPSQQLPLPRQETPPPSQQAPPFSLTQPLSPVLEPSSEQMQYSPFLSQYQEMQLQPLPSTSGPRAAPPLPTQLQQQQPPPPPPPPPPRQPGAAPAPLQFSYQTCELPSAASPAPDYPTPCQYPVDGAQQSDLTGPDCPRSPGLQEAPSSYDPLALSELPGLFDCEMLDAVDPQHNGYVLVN
The following applies: 2 h, kinase SIK2; read-out: % Enzyme Activity (relative to DMSO controls).

For test [9], the target named is T9, panel of 370 protein kinases (Homo sapiens, UniProt P68400).
T9 construct: purchased Reaction Biology Corporation (assay service)
The following applies: 2 h, kinase CK2a; read-out: % Enzyme Activity (relative to DMSO controls).

Test [10] addresses T10, panel of 370 protein kinases (Homo sapiens, UniProt Q15831).
T10 construct: purchased Reaction Biology Corporation (assay service)
Particulars: 2 h, kinase LKB1; read-out: % Enzyme Activity (relative to DMSO controls).

In test [11] the target is T11, panel of 370 protein kinases (Homo sapiens, UniProt P42679).
T11 construct: purchased Reaction Biology Corporation (assay service)
T11 sequence (P42679 whole entry): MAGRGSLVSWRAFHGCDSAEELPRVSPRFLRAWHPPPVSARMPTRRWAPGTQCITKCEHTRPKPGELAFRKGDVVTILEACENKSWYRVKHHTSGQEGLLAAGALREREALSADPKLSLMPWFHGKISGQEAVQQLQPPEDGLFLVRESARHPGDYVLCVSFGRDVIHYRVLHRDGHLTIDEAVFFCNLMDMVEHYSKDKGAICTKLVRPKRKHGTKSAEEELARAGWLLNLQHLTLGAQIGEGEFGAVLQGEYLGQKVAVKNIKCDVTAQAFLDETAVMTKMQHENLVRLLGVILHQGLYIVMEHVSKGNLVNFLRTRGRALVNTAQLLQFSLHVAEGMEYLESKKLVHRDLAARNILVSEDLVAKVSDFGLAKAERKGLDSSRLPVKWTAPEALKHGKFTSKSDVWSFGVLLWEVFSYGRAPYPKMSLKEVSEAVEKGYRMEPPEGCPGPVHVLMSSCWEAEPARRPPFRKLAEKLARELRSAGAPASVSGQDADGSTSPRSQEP
Particulars: 2 h, kinase CTK/MATK; read-out: % Enzyme Activity (relative to DMSO controls).

Test [12] concerns the target T12, panel of 370 protein kinases (Homo sapiens, UniProt Q15569).
T12 construct: purchased Reaction Biology Corporation (assay service)
Particulars: 2 h, kinase TESK1; read-out: % Enzyme Activity (relative to DMSO controls).

For test [13], the target named is T13, panel of 370 protein kinases (Homo sapiens, UniProt P54762).
T13 construct: purchased Reaction Biology Corporation (assay service)
Particulars: 2 h, kinase EPHB1; read-out: % Enzyme Activity (relative to DMSO controls).

Test [14] addresses T14, panel of 370 protein kinases (Homo sapiens, UniProt Q15375).
T14 construct: purchased Reaction Biology Corporation (assay service)
Particulars: 2 h, kinase EPHA7; read-out: % Enzyme Activity (relative to DMSO controls).

Test [15] has as its target T15, panel of 370 protein kinases (Homo sapiens, UniProt P06213).
T15 construct: purchased Reaction Biology Corporation (assay service)
The following applies: 2 h, kinase IR; read-out: % Enzyme Activity (relative to DMSO controls).

The target in test [16] is T16, panel of 370 protein kinases (Homo sapiens, UniProt P07947).
T16 construct: purchased Reaction Biology Corporation (assay service)
The following applies: 2 h, kinase YES/YES1; read-out: % Enzyme Activity (relative to DMSO controls).

Test [17] addresses T17, panel of 370 protein kinases (Homo sapiens, UniProt Q96KB5).
T17 construct: purchased Reaction Biology Corporation (assay service)
The following applies: 2 h, kinase PBK/TOPK; read-out: % Enzyme Activity (relative to DMSO controls).

For test [18], the target named is T18, panel of 370 protein kinases (Homo sapiens, UniProt Q9UF33).
T18 construct: purchased Reaction Biology Corporation (assay service)
T18 sequence (Q9UF33 23-1036): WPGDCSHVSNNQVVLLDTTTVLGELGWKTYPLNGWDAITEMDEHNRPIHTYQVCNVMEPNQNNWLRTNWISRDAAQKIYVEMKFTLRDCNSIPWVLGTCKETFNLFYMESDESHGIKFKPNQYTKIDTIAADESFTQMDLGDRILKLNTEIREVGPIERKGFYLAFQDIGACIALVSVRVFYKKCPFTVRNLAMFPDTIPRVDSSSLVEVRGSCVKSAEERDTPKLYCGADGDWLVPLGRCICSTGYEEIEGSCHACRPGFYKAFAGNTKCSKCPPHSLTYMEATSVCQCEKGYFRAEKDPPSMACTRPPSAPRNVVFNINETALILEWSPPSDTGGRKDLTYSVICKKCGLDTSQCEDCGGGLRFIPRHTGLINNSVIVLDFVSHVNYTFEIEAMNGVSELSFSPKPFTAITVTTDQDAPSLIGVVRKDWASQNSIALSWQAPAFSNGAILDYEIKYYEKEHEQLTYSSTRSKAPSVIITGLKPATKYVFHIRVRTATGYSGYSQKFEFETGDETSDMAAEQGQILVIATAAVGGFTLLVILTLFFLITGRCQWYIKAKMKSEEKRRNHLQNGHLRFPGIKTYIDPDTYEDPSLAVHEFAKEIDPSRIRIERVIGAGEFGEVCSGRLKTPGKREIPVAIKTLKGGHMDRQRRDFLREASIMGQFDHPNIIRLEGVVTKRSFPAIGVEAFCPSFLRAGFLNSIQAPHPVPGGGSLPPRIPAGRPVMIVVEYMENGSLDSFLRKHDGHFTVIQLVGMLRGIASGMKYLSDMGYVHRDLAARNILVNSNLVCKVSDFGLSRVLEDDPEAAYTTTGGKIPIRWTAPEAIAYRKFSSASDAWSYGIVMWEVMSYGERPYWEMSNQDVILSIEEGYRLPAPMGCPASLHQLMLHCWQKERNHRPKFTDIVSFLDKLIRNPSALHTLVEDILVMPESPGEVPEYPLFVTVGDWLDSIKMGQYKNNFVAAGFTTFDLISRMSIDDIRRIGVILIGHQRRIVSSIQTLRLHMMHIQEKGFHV
The following applies: 2 h, kinase EPHA6; read-out: % Enzyme Activity (relative to DMSO controls).

Test [19] addresses T19, panel of 370 protein kinases (Homo sapiens, UniProt P17612).
T19 construct: purchased Reaction Biology Corporation (assay service)
The following applies: 2 h, kinase PKA; read-out: % Enzyme Activity (relative to DMSO controls).

In test [20] the target is T20, panel of 370 protein kinases (Homo sapiens, UniProt Q7L7X3).
T20 construct: purchased Reaction Biology Corporation (assay service)
The following applies: 2 h, kinase TAOK1; read-out: % Enzyme Activity (relative to DMSO controls).

For test [21], the target named is T21, panel of 370 protein kinases (Homo sapiens, UniProt Q12852).
T21 construct: purchased Reaction Biology Corporation (assay service)
T21 sequence (Q12852 whole entry): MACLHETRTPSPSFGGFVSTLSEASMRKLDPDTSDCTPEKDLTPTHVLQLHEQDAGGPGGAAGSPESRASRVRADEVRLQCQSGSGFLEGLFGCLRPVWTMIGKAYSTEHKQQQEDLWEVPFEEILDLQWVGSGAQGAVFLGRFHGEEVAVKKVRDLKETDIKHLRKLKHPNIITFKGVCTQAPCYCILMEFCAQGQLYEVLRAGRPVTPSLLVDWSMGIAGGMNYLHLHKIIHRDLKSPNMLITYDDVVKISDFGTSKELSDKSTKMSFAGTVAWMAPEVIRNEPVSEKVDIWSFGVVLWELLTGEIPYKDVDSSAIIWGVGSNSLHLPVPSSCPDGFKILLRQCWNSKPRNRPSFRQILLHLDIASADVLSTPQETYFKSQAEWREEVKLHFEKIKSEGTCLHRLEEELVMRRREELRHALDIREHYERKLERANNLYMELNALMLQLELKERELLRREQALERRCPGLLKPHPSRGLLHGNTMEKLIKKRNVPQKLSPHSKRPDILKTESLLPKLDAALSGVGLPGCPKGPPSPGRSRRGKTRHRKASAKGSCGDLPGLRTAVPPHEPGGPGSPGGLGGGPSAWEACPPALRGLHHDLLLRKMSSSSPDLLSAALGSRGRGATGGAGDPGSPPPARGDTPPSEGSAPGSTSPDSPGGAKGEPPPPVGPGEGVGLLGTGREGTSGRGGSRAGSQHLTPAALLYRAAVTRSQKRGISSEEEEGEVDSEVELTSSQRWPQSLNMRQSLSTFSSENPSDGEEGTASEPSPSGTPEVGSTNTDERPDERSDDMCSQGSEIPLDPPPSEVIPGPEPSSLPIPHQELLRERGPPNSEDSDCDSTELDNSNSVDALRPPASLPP
Particulars: kinase DLK/MAP3K12.

Values joined by “and” are separate entries in the source; they are usually repeats but may differ in a detail not shown here. Identical values can stand only once.

On to `CCN1CCN(C(=O)c2ccc(Nc3ncc(F)c(-c4ccc5nc(N(C)C)sc5c4)n3)nc2)CC1` [YK-2-69], for which the remaining activity at 1 µM stood at 97.7% in test [1]; 80.1% in [2]; 93.1% in test [3]; 101% in test [4]; 48.3% in [5]; 96.6% in test [6]. The remaining activity at 1 µM in [8] worked out at 95.6%; in [9] it was 52.3%; in test [10], 111%; in test [11] it was 98%; in [12], 108%; in [13], 94%. Also, the remaining activity at 1 µM in test [14] amounted to 83%; in [15], 99.4%; in test [16] it was 108%; in test [17], 108%; in [18], 104%; in [19], 98.7%. In addition, the remaining activity at 1 µM in [20] is 108%. In addition, the “% Enzyme Activity (relative to DMSO controls)” value is 102.35% and 96.73% in test [7]; 98.52% and 93.92% in test [21].
